Measured values published in patent publication US12527781B2, “Treatment of neurodegenerative conditions by disruption of Rhes” (The Regents of the University of California, priority 2017, dated 2026).
Entries after “also recorded” stand apart in the source; their conditions may differ.

Legend:
[1] = system: lysosomal protein degradation; test: proteolysis of long-half-life proteins after 3H-leucine pulse; assay type: cell-based; conditions: 48 h pulse with 3H-leucine; NH4Cl and leupeptin present
Experimental: To assess this possibility, proteolysis of long-half-life proteins was evaluated after a long pulse (48 h) with ^3H-leucine.

[2] = system: rTg4510 mouse; test: nest building / nest shredding behaviour in rTg4510 mice; assay type: in vivo; conditions: prolonged oral 80 mg/Kg/day
Source text: FIG. 2. FIG. 2 is a boxplot depicting qualitative scores for mice in shredding nest material for control mice and in the tau mouse model rTg4510 expressing human mutant tau P301L, with efficient shredding scored at 3.5 or higher. Control litter-mates where able to shred their nest material efficiently while rTg4510 mice lost their ability in an age-related matter (score less than 1).
As transgenic mice age, they display progressive worsening that begins with impaired marble burial and nest shredding and by 30 weeks progresses to hyperexcitability, restlessness in response to human approach and obsessive circling. […] Nest building was assessed at 20 weeks. […] At five weeks, littermate controls and transgenic mice produced nests with similar scores.

[3] = cited from earlier work
[4] = system: NIH3T3 mouse fibroblasts; test: macroautophagy flux with tandem reporter mCherry-GFP-LC3B; assay type: cell-based
[5] = system: Mouse cultured neurons overexpressing Rhes; test: accumulation of phosphorylated tau in cultured neurons overexpressing Rhes; assay type: cell-based; conditions: increasing concentrations, assayed between 25 to 250 nM
Source text: FIG. 1. Mouse cultured neurons overexpressing Rhes display an aberrant accumulation of phosphorylated tau. […] The two lines represent results for separate culture replications.
Mouse cultured neurons overexpressing Rhes display an aberrant accumulation of phosphorylated tau.

[6] = system: rTg4510 mouse; test: tau pathology in rTg4510 mice (MC1 immunoreactivity, coronal brain area, Iba1 microglia); assay type: in vivo
Source text: These mice develop tau tangles in the cerebral cortex by 4 months of age and in the hippocampus by 5.5 months. By 5.5 months, the mice also lose about 60% of their hippocampal CA1 neurons. Spatial memory deficits become apparent by 2.5 to 4 months of age; however electrophysiological properties of cortical neurons are detected before the accumulation of tau pathology. […] MC1 immunoreactivity, corresponding to neurofibrillary tangles throughout hippocampus, amygdala, entorhinal cortex and cerebrocortex, was first detected at ˜16 weeks and progressed by 20 weeks to a mean of 92.99±13.626 MC1^+ cells/mm^2 in the cerebral cortex, and 67.57±13.113 cells/mm^2 in the hippocampus.
Lonafarnib treatment was initiated when the animals were ten weeks old. The drug was resuspended in 20% HBCD and gavage fed, five days on and five days off at 80 mg/Kg/day. The drug was remarkably effective in reducing MC1 immunoreactivity.

With `NC(=O)N1CCC(CC(=O)N2CCC([C@H]3c4ncc(Br)cc4CCc4cc(Cl)cc(Br)c43)CC2)CC1` [Lonafarnib] the “proteolysis effect in the presence of NH4Cl and leupeptin” value [1] was “abolished”, the “nest shredding / nest building” value ([2]; absence of Doxycicline (L80), chronic intermittent from ten weeks, assessed at 20 weeks, 80 mg/kg/day) was “prevented the nest shredding deficit; also recorded: rescued nest building” and the nest shredding ([2]; presence of Doxycicline (L80D)) was “prevented the nest shredding deficit”. For the same molecule, the efficacy and tolerability ([3]; dose of 100-150 mg/m2 body surface area) was “effective and well tolerated”, the “side effects in humans” value ([3]; humans) was “few side effects in humans” and the number of autophagosomes ([4]; at lower concentrations) was “remained unchanged”. The macroautophagy flux ([4]; basal macroautophagy, NIH3T3 mCherry-GFP-LC3B) was “dose-dependent increase”, the “macroautophagy flux in induced cells” value ([4]; macroautophagy induced by paraquat or thapsigargin) was “did not further increase macroautophagy flux” and the “accumulation of phosphorylated tau” value [5] was “reduced”. The “MC1+ cells/mm^2 in hippocampus” value ([6]; 80 mg/Kg/day gavage, five days on and five days off from ten weeks, evaluated at 20 weeks, p=6.4×10^−3 vs vehicle) was 13.38±2.615 MC1+ cells/mm^2, the “MC1+ cells/mm^2 in cortex” value ([6]; 80 mg/Kg/day gavage, five days on and five days off from ten weeks, evaluated at 20 weeks, p=7.2×10^−3 vs vehicle) was 44.27±4.064 MC1+ cells/mm^2 and the “hippocampal microgliosis (Iba1)” value ([6]; 20-week old transgenic mice vs age matched untreated transgenic mice) was “significantly reduced”. The coronal brain area ([6]; chronic treatment, 20 weeks, vs vehicle and untreated age-matched transgenic mice) was “significantly larger” and the “effect as acute intervention on tau pathology” value ([6]; gavage daily for 2 weeks, 80 mg/Kg/day, 20 week-old rTg4510 mice, after tau pathology was fulminant) was “ineffective”.
